What was measured:
Type in all cases: cell-based
[1] = system: RPMI-8226; test: NCI 60 cell line screen (SRB), Leukemia; conditions: RPMI-8226 (Leukemia)
[2] = system: NCI-H322M; test: NCI 60 cell line screen (SRB), Non-Small Cell Lung Cancer
[3] = system: COLO 205; test: NCI 60 cell line screen (SRB), Colon Cancer; conditions: COLO 205 (Colon Cancer)
[4] = system: HCT-15; test: NCI 60 cell line screen (SRB), Colon Cancer; conditions: HCT-15 (Colon Cancer)
[5] = system: KM12; test: NCI 60 cell line screen (SRB), Colon Cancer
[6] = system: SW-620; test: NCI 60 cell line screen (SRB), Colon Cancer; conditions: SW-620 (Colon Cancer)
[7] = system: SNB-19; test: NCI 60 cell line screen (SRB), CNS Cancer; conditions: SNB-19 (CNS Cancer)
[8] = system: U251; test: NCI 60 cell line screen (SRB), CNS Cancer
[9] = system: LOX IMVI; test: NCI 60 cell line screen (SRB), Melanoma
[10] = system: OVCAR-3; test: NCI 60 cell line screen (SRB), Ovarian Cancer; conditions: OVCAR-3 (Ovarian Cancer)
[11] = system: OVCAR-8; test: NCI 60 cell line screen (SRB), Ovarian Cancer; conditions: OVCAR-8 (Ovarian Cancer)
[12] = system: ACHN; test: NCI 60 cell line screen (SRB), Renal Cancer
[13] = system: CAKI-1; test: NCI 60 cell line screen (SRB), Renal Cancer; conditions: CAKI-1 (Renal Cancer)
[14] = system: RXF 393; test: NCI 60 cell line screen (SRB), Renal Cancer; conditions: RXF 393 (Renal Cancer)
[15] = system: SN12C; test: NCI 60 cell line screen (SRB), Renal Cancer
[16] = system: UO-31; test: NCI 60 cell line screen (SRB), Renal Cancer; conditions: UO-31 (Renal Cancer)
[17] = system: MCF7; test: NCI 60 cell line screen (SRB), Breast Cancer
[18] = system: MCF7/ADR-RES; test: NCI 60 cell line screen (SRB), Breast Cancer
[19] = system: MDA-N; test: NCI 60 cell line screen (SRB), Breast Cancer
[20] = system: BT-549; test: NCI 60 cell line screen (SRB), Breast Cancer; conditions: BT-549 (Breast Cancer)
[21] = system: T-47D; test: NCI 60 cell line screen (SRB), Breast Cancer; conditions: T-47D (Breast Cancer)
[22] = system: A549/ATCC; test: NCI 60 cell line screen (SRB), Non-Small Cell Lung Cancer
[23] = system: HOP-92; test: as above; conditions: HOP-92 (Non-Small Cell Lung Cancer)
[24] = system: SK-MEL-28; test: NCI 60 cell line screen (SRB), Melanoma; conditions: SK-MEL-28 (Melanoma)
[25] = system: HS 578T; test: NCI 60 cell line screen (SRB), Breast Cancer; conditions: HS 578T (Breast Cancer)

CC(=O)O[C@H]1C(=O)[C@@]2(C)[C@H]([C@H](OC(=O)c3ccccc3)[C@]3(O)C[C@H](OC(=O)[C@H](O)[C@@H](NC(=O)c4ccccc4)c4ccccc4)C(C)=C1C3(C)C)[C@]1(OC(C)=O)CO[C@@H]1C[C@@H]2O [Paclitaxel, paclitaxel, reference compound]
−6.37 M: Log10GI50 [4]
−11.43 M: Log10GI50 [5]
−11.80 M: Log10GI50 [9]
−4.32 M: Log10TGI [8]
−8.48 M: Log10GI50 [18]
−11.29 M: Log10GI50 [8]
−9.81 M: Log10GI50 [21]
−4.45 M: Log10LC50 [12]
−11.07 M: Log10GI50 [3]
−10.75 M: Log10GI50 [11]
−4.90 M: Log10TGI [12]
−8.32 M: Log10GI50 [14]
−10.40 M: Log10GI50 [10]
−11.69 M: Log10GI50 [17]
<−13.00 M: Log10GI50 [1] | Log10GI50 [19]
−4.15 M: Log10LC50 [8]
−4.65 M: Log10TGI [9]
−4.55 M: Log10TGI [10]
−11.60 M: Log10GI50 [6]
−9.31 M: Log10GI50 [20]
−4.36 M: Log10TGI [5]
−6.09 M: Log10GI50 [16]
−10.12 M: Log10GI50 [2]
>−4.15 M: Log10LC50 [9]
−6.32 M: Log10TGI [20]
>−4.00 M: Log10LC50 [1] | Log10TGI [1] | Log10LC50 [2] | Log10LC50 [4] | Log10TGI [4] | Log10LC50 [5] | Log10LC50 [6] | Log10TGI [6] | Log10LC50 [7] | Log10TGI [7] | Log10LC50 [10] | Log10LC50 [11] | Log10LC50 [13] | Log10LC50 [14] | Log10TGI [14] | Log10LC50 [15] | Log10LC50 [17] | Log10LC50 [18] | Log10TGI [18] | Log10LC50 [20] | Log10LC50 [21]
>−4.41 M: Log10LC50 [3]
−9.53 M: Log10GI50 [15]
−4.46 M: Log10TGI [2]
−8.98 M: Log10GI50 [7]

C[C@@H]1CC[C@H]2[C@@H](C)C(=O)O[C@@H]3O[C@@]4(C)CC[C@@H]1[C@]32OO4 [QHS, 3,6,9-trimethyl-9,10b-epidioxyperhydropyrano[4,3,2-jk]benzoxepin-2-one, reference compound]
−4.06 M: Log10GI50 [16] | Log10GI50 [20]
−4.00 M: Log10TGI [16] | Log10TGI [20]
−4.21 M: Log10GI50 [15]
>−4.00 M: Log10GI50 [1] | Log10LC50 [1] | Log10TGI [1] | Log10LC50 [22] | Log10TGI [22] | Log10GI50 [23] | Log10LC50 [23] | Log10TGI [23] | Log10GI50 [3] | Log10LC50 [3] | Log10TGI [3] | Log10GI50 [4] | Log10LC50 [4] | Log10TGI [4] | Log10GI50 [5] | Log10LC50 [5] | Log10TGI [5] | Log10GI50 [6] | Log10LC50 [6] | Log10TGI [6] | Log10GI50 [7] | Log10LC50 [7] | Log10TGI [7] | Log10GI50 [8] | Log10LC50 [8] | Log10TGI [8] | Log10GI50 [24] | Log10LC50 [24] | Log10TGI [24] | Log10GI50 [11] | Log10LC50 [11] | Log10TGI [11] | Log10GI50 [12] | Log10LC50 [12] | Log10TGI [12] | Log10LC50 [14] | Log10TGI [14] | Log10LC50 [15] | Log10TGI [15] | Log10LC50 [16] | Log10GI50 [17] | Log10LC50 [17] | Log10TGI [17] | Log10GI50 [25] | Log10LC50 [25] | Log10TGI [25] | Log10GI50 [19] | Log10LC50 [19] | Log10TGI [19] | Log10LC50 [20] | Log10LC50 [21] | Log10TGI [21]
−4.17 M: Log10GI50 [22]
−4.08 M: Log10GI50 [14]

Source: patent publication USRE38117E1, “Trioxane dimer compound having antiproliferative and antitumor activities” (Hauser, Inc., priority 1995, dated 2003)
